According to patent US12655107B2 (The United States of America, as represented by the …, priority 2018, dated 2026):
“And” between values parts separate entries of the source, which are not always exact repeats. Equal entries are not always repeated.

Columns and labels:
Top1 = target: T1, Top1 (Homo sapiens, UniProt P11387); assay: Top1-mediated DNA cleavage assay; type: biochemical; conditions: for Top1 cleavage: inhibition relative to 1 μM CPT, Table 6
T1 sequence (P11387 1-765): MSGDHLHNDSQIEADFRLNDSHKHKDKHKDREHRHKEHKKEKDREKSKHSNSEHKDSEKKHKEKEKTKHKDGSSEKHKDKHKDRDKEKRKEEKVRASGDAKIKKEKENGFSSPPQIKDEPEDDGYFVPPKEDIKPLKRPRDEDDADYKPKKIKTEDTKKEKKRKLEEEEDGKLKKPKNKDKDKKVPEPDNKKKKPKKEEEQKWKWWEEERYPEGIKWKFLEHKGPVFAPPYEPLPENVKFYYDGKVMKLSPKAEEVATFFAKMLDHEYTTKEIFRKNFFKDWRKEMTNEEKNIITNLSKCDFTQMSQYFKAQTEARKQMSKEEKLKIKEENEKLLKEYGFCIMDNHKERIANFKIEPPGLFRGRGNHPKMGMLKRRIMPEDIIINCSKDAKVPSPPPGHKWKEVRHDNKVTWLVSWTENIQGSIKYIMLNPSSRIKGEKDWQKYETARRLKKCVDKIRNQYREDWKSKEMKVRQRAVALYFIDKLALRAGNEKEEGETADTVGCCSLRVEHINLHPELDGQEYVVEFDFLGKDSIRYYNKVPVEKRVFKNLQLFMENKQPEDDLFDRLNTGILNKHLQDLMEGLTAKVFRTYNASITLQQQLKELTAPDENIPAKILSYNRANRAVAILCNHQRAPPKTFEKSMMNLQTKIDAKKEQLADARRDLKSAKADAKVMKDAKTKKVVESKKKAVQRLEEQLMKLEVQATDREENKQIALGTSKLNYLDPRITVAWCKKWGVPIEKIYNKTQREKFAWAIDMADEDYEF

Tdp1 = Tdp1 (Homo sapiens, UniProt Q9NUW8); assay: Tdp1 inhibition gel-based assay; conditions: IC50 Tdp1 (μM), Table 6; replicate values listed in one cell
Tdp1, sequence (Q9NUW8 whole entry): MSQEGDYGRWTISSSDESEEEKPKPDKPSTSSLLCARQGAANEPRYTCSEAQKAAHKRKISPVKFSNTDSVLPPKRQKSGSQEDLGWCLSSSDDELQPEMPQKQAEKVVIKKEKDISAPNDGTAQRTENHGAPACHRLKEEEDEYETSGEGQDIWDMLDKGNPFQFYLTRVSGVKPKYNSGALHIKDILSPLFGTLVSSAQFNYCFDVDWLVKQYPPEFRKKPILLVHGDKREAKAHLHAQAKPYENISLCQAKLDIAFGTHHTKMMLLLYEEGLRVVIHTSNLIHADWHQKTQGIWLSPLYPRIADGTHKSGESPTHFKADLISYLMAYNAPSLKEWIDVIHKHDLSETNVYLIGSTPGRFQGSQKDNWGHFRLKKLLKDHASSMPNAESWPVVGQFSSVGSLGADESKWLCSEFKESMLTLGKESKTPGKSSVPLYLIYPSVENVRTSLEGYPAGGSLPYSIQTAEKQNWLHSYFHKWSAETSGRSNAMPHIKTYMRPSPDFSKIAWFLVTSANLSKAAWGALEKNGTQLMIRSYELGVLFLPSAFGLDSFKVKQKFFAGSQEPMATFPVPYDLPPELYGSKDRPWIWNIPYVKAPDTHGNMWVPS
Method: The indenoisoquinoline 10 was used as the positive control.
Gel-based assay. […] Gels were dried and exposed to a PhosphorImager screen (GE Healthcare). Gel images were scanned using a Typhoon FLA 9500 scanner (GE Healthcare), and densitometry analyses were performed using the ImageQuant software (GE Healthcare).

Row | SMILES | TOP1 inhibition (Top1; graded relative to CPT at 1 μM, Table 7) | IC50 (Tdp1) | Top1 cleavage (Top1)
1 | COc1cc2c(=O)n(CCN(C)P3(=O)OCCO3)c3c4cc5c(cc4ccc3c2cc1OC)OCO5 [Compound 57, 2,3-dimethoxy-12-(2-(methyl(2-oxido-1,3,2-dioxaphospholan-2-yl)amino)ethyl)-[1,3]dioxolo[4′,5′:4,5]benzo[1,2-c]phenanthridin-13(12H)-one] | ++ (++, between 50% and 75% activity) |  | 
2 | COc1cc2c[n+](CCN(C)C)c3c4cc5c(cc4ccc3c2cc1OC)OCO5 [NTD-191] |  | 64.2 ± 23.9 µM | 
3 | COc1cc2c[n+](CCCn3ccnc3)c3c4cc5c(cc4ccc3c2cc1OC)OCO5 [NTD-192] |  | 81.3 ± 14.5 µM | 
4 | CCN(CC)CC[n+]1cc2cc(OC)c(OC)cc2c2ccc3cc4c(cc3c21)OCO4 [NTD-195] |  | > 111 µM | 
5 | COc1cc2c(OCCCN3CCN(C(C)=O)CC3)nc3c4cc5c(cc4ccc3c2cc1OC)OCO5 [NTD-205] |  | > 111 µM | ++ (++ is 50-75%)
6 | CCN1CCN(CCCOc2nc3c4cc5c(cc4ccc3c3cc(OC)c(OC)cc23)OCO5)CC1 [NTD-207] |  | > 111 µM | + (+ is 20-50%)
7 | COc1cc2c(OCCCOC(=O)c3ccccc3)nc3c4cc5c(cc4ccc3c2cc1OC)OCO5 [NTD-208] |  | > 111 µM | + (+ is 20-50%)
8 | COc1cc2c(OCCCOC(=O)c3ccc(Br)cc3)nc3c4cc5c(cc4ccc3c2cc1OC)OCO5 [NTD-209] |  | > 111 µM | + (+ is 20-50%)
9 | COc1cc2c(OCCCOC(=O)c3ccc(Cl)cc3)nc3c4cc5c(cc4ccc3c2cc1OC)OCO5 [NTD-210] |  | > 111 µM | + (+ is 20-50%)
10 | COc1cc2c(OCCCN3CCC3)nc3c4cc5c(cc4ccc3c2cc1OC)OCO5 [NTD-225] |  | 20.6 ± 4.46 µM | 0 (0 is inactive)
11 | COc1cc2c(NCCCN(C)C)nc3c4cc5c(cc4ccc3c2cc1OC)OCO5 [NTD-301] |  | 38 µM | 0 (0 is inactive)
12 | CCN(CC)CCNc1nc2c3cc4c(cc3ccc2c2cc(OC)c(OC)cc12)OCO4 [NTD-305] |  | > 111 µM | + (+ is 20-50%)
13 | COc1cc2c(NCCN3CCCC3)nc3c4cc5c(cc4ccc3c2cc1OC)OCO5 [NTD-307] |  | 56.2 µM | 
14 | COc1cc2c(NCCN3CCOCC3)nc3c4cc5c(cc4ccc3c2cc1OC)OCO5 [NTD-309] |  | > 111 µM | + (n = 2) (+ is 20-50%)
15 | COc1cc2c(NCCN3CCNCC3)nc3c4cc5c(cc4ccc3c2cc1OC)OCO5 [NTD-311] |  | > 111 µM | 
16 | COc1cc2c(NCCCN3CCN(C)CC3)nc3c4cc5c(cc4ccc3c2cc1OC)OCO5 [NTD-312] |  | > 111 µM | + (+ is 20-50%)
17 | COc1cc2c(NCCN3CCCCC3)nc3c4cc5c(cc4ccc3c2cc1OC)OCO5 [NTD-313] |  | > 111 µM | + (n = 2) (+ is 20-50%)
18 | COc1cc2c(NCCCn3ccnc3)nc3c4cc5c(cc4ccc3c2cc1OC)OCO5 [NTD-314] |  | > 111 µM | + (+ is 20-50%)
19 | COc1cc2c(NCCN)nc3c4cc5c(cc4ccc3c2cc1OC)OCO5 [NTD-325] |  | 72 µM and 107 µM | 0 (0 is inactive)
20 | COc1cc2c(N(C)C)nc3c4cc5c(cc4ccc3c2cc1OC)OCO5 [NTD-329] |  | > 111 µM | 
21 | C=CCOc1nc2c3cc4c(cc3ccc2c2cc(OC)c(OC)cc12)OCO4 [NTD-332] |  | > 111 µM | 
22 | CCOC(=O)COc1nc2c3cc4c(cc3ccc2c2cc(OC)c(OC)cc12)OCO4 [NTD-334] |  | > 111 µM | 
23 | CCC(CO)Nc1nc2c3cc4c(cc3ccc2c2cc(OC)c(OC)cc12)OCO4 (centres unmarked) [NTD-363] |  |  | + (+ is 20-50%)
24 | COc1cc2c(SCCN(C)C)nc3c4cc5c(cc4ccc3c2cc1OC)OCO5 [NTD-403] |  | > 111 µM | ++ (n = 2) (++ is 50-75%)
25 | CCN(CC)CCSc1nc2c3cc4c(cc3ccc2c2cc(OC)c(OC)cc12)OCO4 [NTD-404] |  | > 111 µM | ++ (++ is 50-75%)
26 | CN(C)CCn1c(=O)c2ccccc2c2ccc3ccccc3c21 [TWL-5] |  | 75.9 µM and > 111 µM (2×) and 64.6 µM | + (+ is 20-50%)

Row | SMILES | TOP1 inhibition (Top1; graded relative to CPT at 1 μM, Table 7) | IC50 (Tdp1) | Top1 cleavage (Top1)
27 | COc1ccc2c(ccc3c4ccccc4c(=O)n(CCN(C)C)c23)c1 [TWL-9] |  | > 111 µM | + (+ is 20-50%)
28 | COc1ccc2c(=O)n(CCN(C)C)c3c4ccccc4ccc3c2c1 [TWL-17] |  | > 111 µM | + (+ is 20-50%)
29 | CN(C)CCn1c(=O)c2cc(O)ccc2c2ccc3ccccc3c21 [TWL-25A] |  | > 111 µM (2×) and 74.1 µM and 75.9 µM | + (+ is 20-50%)
30 | COc1ccc2c(c1)c(=O)n(CCN(C)C)c1c3ccccc3ccc21 [TWL-25] |  | 49.4 ± 1.4 µM | + (+ is 20-50%)
31 | COc1cccc2c1ccc1c3ccccc3c(=O)n(CCN(C)C)c21 [TWL-26] |  | > 111 µM | + (+ is 20-50%)
32 | COc1ccc2ccc3c4ccccc4c(=O)n(CCN(C)C)c3c2c1 [TWL-33] |  | > 111 µM | + (+ is 20-50%)
33 | CN(C)CCn1c(=O)c2cc3c(cc2c2ccc4cc5c(cc4c21)OCO5)OCO3 [TWL-37] |  | 27.6 ± 19 µM | + (+ is 20-50%)
34 | CN(C)CCn1c(=O)c2cc3c(cc2c2ccc4ccccc4c21)OCO3 [TWL-40] |  | 18.2 ± 1.15 µM | + (+ is 20-50%)
35 | COc1cc2c(=O)n(CCN(C)C)c3c4ccccc4ccc3c2cc1OC [TWL-44] |  | > 111 µM | + (+ is 20-50%)
36 | COc1cc2ccc3c4cc(OC)c(OC)cc4c(=O)n(CCN(C)C)c3c2cc1OC [TWL-48] |  | > 111 µM | 
37 | CN(C)CCn1c(=O)c2ccccc2c2ccc3cc(Br)ccc3c21 [TWL-53] |  | > 111 µM | 
38 | CN(C)CCn1c(=O)c2ccccc2c2ccc3cc4c(cc3c21)OCO4 [TWL-67] |  | > 111 µM | + (+ is 20-50%)
39 | COc1cc2ccc3c4ccccc4c(=O)n(CCN(C)C)c3c2cc1OC [TWL-76H] |  | > 111 µM | 
40 | COc1cc2ccc3c4cc5c(cc4c(=O)n(CCN(C)C)c3c2cc1OC)OCO5 [TWL-107] |  | 67.6 µM | 
41 | COc1cc2c(cc1O)c(=O)n(CCN(C)C)c1c3cc4c(cc3ccc21)OCO4 [TWL-113] |  | > 111 µM (2×) and 65 µM | + (+ is 20-50%)
42 | COc1cc2c(=O)n(CCN(C)C)c3c4cc5c(cc4ccc3c2cc1O)OCO5 [TWL-119] |  | > 111 µM | + (+ is 20-50%)
43 | COc1cc2c(ccc3c4cc(OC)c(OC)cc4c(=O)n(CCN(C)C)c23)cc1O [TWL-125] |  | 65 µM and 50 µM | + (+ is 20-50%)
44 | COc1cc2ccc3c4cc(OC)c(OC)cc4c(=O)n(CCN(C)C)c3c2cc1O [TWL-131] |  | > 111 µM | 
45 | COc1cc2c(=O)n(CCN(C)C)c3c4cc(O)c(O)cc4ccc3c2cc1OC [TWL-164] |  | > 111 µM | ++ (++ is 50-75%)
46 | CN(C)CCn1c(=O)c2cc(O)c(O)cc2c2ccc3cc4c(cc3c21)OCO4 [TWL-170] |  | > 111 µM | + (+ is 20-50%)
47 | CN(C)CCn1c(=O)c2c3c(ccc2c2ccc4ccccc4c21)OCO3 [TWL-185] |  | > 111 µM | + (+ is 20-50%)
48 | COc1cc2ccc3c4ccc5c(c4c(=O)n(CCN(C)C)c3c2cc1OC)OCO5 [TWL-189] |  | > 111 µM | + (+ is 20-50%)
49 | CN(C)CCn1c(=O)c2c3c(ccc2c2ccc4cc5c(cc4c21)OCO5)OCO3 [TWL-191] |  | > 111 µM | 
50 | COc1ccc2c(c1O)c(=O)n(CCN(C)C)c1c3cc4c(cc3ccc21)OCO4 [TWL-211] |  | 11 µM and 30 µM and 72 µM | + (+ is 20-50%)
51 | CN(C)CCn1c(=O)c2c(O)c(O)ccc2c2ccc3cc4c(cc3c21)OCO4 [TWL-218A] |  |  | +++ (+++ is 75-95%)
52 | COc1cc2c(=O)n(CCN(C)C)c3c4cc5c(cc4c(OC)cc3c2cc1OC)OCO5 [TWL-246] |  |  | ++ (++ is 50-75%)
